Test results as given in patent US10316017B2, “COT modulators and methods of use thereof” (Gilead Sciences, Inc., priority 2015, dated 2019).
Where two headings read alike, the source gives them in different places.

Tests used:
[1] = system: TNFα production in LPS-stimulated human monocytes; assay: Cot Monocyte TNFα Cell Based Assay; settings: read-out: EC50 TNF
How it was run: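 Percent-of-control values derive from TR-FRET ratios of TNFα in spun-down media, referenced to unstimulated and LPS-stimulated wells. Exposure: 1 h compound preincubation, then 50 pg/ml LPS for 4 h, both at 37 °C, with 0.5% final DMSO.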

[2] = target: T1, human Cot catalytic domain (30-397 amino acids) (Homo sapiens, UniProt P41279); assay: High Throughput Cot Biochemical Assay (KinEASE TR-FRET); settings: Cot biochemical HTRF (KinEASE TR-FRET) assay; read-out: IC50 HTRF
T1 construct: Purified recombinant human Cot catalytic domain (30-397 amino acids) was purchased from Cama Biosciences; purchased Cama Biosciences (so in the source)
How it was run: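 Phosphorylation of 1 μM XL665-STK3 peptide by 5 nM Cot catalytic domain was measured by time-resolved FRET using a europium […] antibody. ATP was 400 μM; buffer was 10 mM MOPS pH 7.0 with Mg2+ and DTT.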

[3] = Homo sapiens, Monocyte, TNFα in LPS-stimulated human monocytes
[4] = TNFα in LPS-stimulated human monocytes

T1 sequence (P41279 30-397): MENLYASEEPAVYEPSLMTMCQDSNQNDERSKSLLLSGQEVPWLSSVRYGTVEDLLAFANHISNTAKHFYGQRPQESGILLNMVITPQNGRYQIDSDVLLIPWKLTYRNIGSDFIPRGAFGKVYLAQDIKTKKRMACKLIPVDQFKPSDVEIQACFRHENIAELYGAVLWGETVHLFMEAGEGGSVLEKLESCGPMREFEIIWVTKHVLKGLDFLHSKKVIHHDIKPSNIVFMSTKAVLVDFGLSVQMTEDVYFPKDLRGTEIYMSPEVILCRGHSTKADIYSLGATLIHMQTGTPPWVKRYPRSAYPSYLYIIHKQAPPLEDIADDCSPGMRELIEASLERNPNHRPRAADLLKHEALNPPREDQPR

Row | SMILES | EC50 [1, 3] [µM] | IC50 [2] [µM] | EC50 [1, 4] [µM] | EC50 ([1]; Homo sapiens, Monocyte) [µM]
1 | N#Cc1cnc2c(Cl)cc(N[C@@H](c3ccc(F)cc3)c3c[nH]nn3)cc2c1NCC1COC1 [Example 421, (S)-8-chloro-6-(((4-fluorophenyl)(1H-1,2,3-triazol-4-yl)methyl)amino)-4-((oxetan-3-ylmethyl)amino)quinoline-3-carbonitrile] | > 10 | 1.49 | – | –
2 | N#Cc1cnc2c(Cl)cc(N[C@H](c3c[nH]nn3)c3ccc(F)cc3Cl)cc2c1Nc1cnc(F)c(F)c1 [Example 422, (S)-8-chloro-6-(((2-chloro-4-fluorophenyl)(1H-1,2,3-triazol-4-yl)methyl)amino)-4-((5,6-difluoropyridin-3-yl)amino)quinoline-3-carbonitrile] | 1.35 | 0.048 | – | –
3 | CC[C@@H](Nc1c(C#N)cnc2c(Cl)cc(N[C@H](c3cnn(C(F)F)n3)c3cccc(F)c3F)cc12)c1ccccc1 [Example 426, 8-chloro-6-(((S)-(2-(difluoromethyl)-2H-1,2,3-triazol-4-yl)(2,3-difluorophenyl)methyl)amino)-4-(((R)-1-phenylpropyl)amino) quinoline-3-carbonitrile] | > 10 | 3.15 | – | –
4 | CC[C@@H](Nc1c(C#N)cnc2c(Cl)cc(N[C@@H](c3cccc(F)c3F)c3cnnn3C(F)F)cc12)c1ccccc1 [Example 427, 8-chloro-6-(((S)-(1-(difluoromethyl)-1H-1,2,3-triazol-5-yl)(2,3-difluorophenyl)methyl)amino)-4-(((R)-1-phenylpropyl)amino) quinoline-3-carbonitrile] | 8.88 | 0.316 | – | –
5 | CC[C@@H](Nc1c(C#N)cnc2c(Cl)cc(N[C@H](c3cn(C(F)F)nn3)c3cccc(F)c3F)cc12)c1ccccc1 [Example 428, 8-chloro-6-(((S)-(1-(difluoromethyl)-1H-1,2,3-triazol-4-yl)(2,3-difluorophenyl)methyl)amino)-4-(((R)-1-phenylpropyl)amino) quinoline-3-carbonitrile] | 1.83 | 0.087 | – | –
6 | C[Si](C)(C)Cn1cc([C@@H](Nc2cc(Cl)c3ncc(C#N)c(Nc4cnc(F)c(F)c4)c3c2)c2ccccc2F)nn1 [Example 431, (S)-8-chloro-4-((5,6-difluoropyridin-3-yl)amino)-6-(((2-fluorophenyl)(1-((trimethylsilyl)methyl)-1H-1,2,3-triazol-4-yl)methyl)amino)quinoline-3-carbonitrile] | – | 0.096 | – | 3.28
7 | N#Cc1cnc2c(Cl)cc(N[C@@H](c3ccc(F)cc3)c3c[nH]nn3)cc2c1N[C@@H](CCO)c1ccccc1 [Example 432, 8-chloro-6-(((S)-(4-fluorophenyl)(1H-1,2,3-triazol-4-yl)methyl)amino)-4-(((S)-3-hydroxy-1-phenylpropyl)amino)quinoline-3-carbonitrile] | 3.93 | 0.624 | – | –
8 | CC[C@@H](Nc1c(C#N)cnc2c(Cl)cc(NC(c3ccc(F)cc3)c3nn[nH]c3OC)cc12)c1ccccc1 (stereo partly drawn) [Example 434, 8-chloro-6-(((4-fluorophenyl)(5-methoxy-1H-1,2,3-triazol-4-yl)methyl)amino)-4-(((R)-1-phenylpropyl)amino)quinoline-3-carbonitrile] | 2.38 | 2.76 | – | –
9 | COc1[nH]nnc1C(Nc1cc(Cl)c2ncc(C#N)c(Nc3cnc(F)c(F)c3)c2c1)c1ccc(F)cc1 (stereo not drawn) [Example 435, 8-chloro-4-((5,6-difluoropyridin-3-yl)amino)-6-(((4-fluorophenyl)(5-methoxy-1H-1,2,3-triazol-4-yl)methyl)amino)quinoline-3-carbonitrile] | > 10 | 7.93 | – | –
10 | N#Cc1cnc2c(Cl)cc(N[C@@H](c3ccc(F)cc3)c3c[nH]nn3)cc2c1NCC1CCCCO1 (stereo partly drawn) [Example 436, 8-chloro-6-(((S)-(4-fluorophenyl)(1H-1,2,3-triazol-4-yl)methyl)amino)-4-(((tetrahydro-2H-pyran-2-yl)methyl)amino)quinoline-3-carbonitrile] | 3.03 | 1.36 | – | –
11 | CC(C)(C)N1CCC(n2cc([C@@H](Nc3cc(Cl)c4ncc(C#N)c(NCC5CCCCO5)c4c3)c3ccc(F)cc3)nn2)CC1 (stereo partly drawn) [Example 437, 6-(((S)-(1-(1-(tert-butyl)piperidin-4-yl)-1H-1,2,3-triazol-4-yl)(4-fluorophenyl)methyl)amino)-8-chloro-4-(((tetrahydro-2H-pyran-2-yl)methyl)amino)quinoline-3-carbonitrile] | 3.91 | 0.448 | – | –
12 | N#Cc1cnc2c(Cl)cc(N[C@@H](c3ccc(F)cc3)c3c[nH]nn3)cc2c1NC1CCCC(O)C1 (stereo partly drawn) [Example 438, 8-chloro-6-(((S)-(4-fluorophenyl)(1H-1,2,3-triazol-4-yl)methyl)amino)-4-((3-hydroxycyclohexyl)amino) quinoline-3-carbonitrile] | 5.13 | 0.135 | – | –
13 | N#Cc1cnc2c(Cl)cc(N[C@@H](c3ccc(F)cc3)c3c[nH]nn3)cc2c1NC1CCCC(O)C1 (stereo partly drawn) [Example 439, 8-chloro-6-(((S)-(4-fluorophenyl)(1H-1,2,3-triazol-4-yl)methyl)amino)-4-((3-hydroxycyclohexyl)amino) quinoline-3-carbonitrile] | – | 2.96 | > 10 | –
14 | CC(C)(C)N1CCC(n2cc([C@@H](Nc3cc(Cl)c4ncc(C#N)c(NC5CCCC(O)C5)c4c3)c3ccc(F)cc3)nn2)CC1 (stereo partly drawn) [Example 441, 6-(((S)-(1-(1-(tert-butyl)piperidin-4-yl)-1H-1,2,3-triazol-4-yl)(4-fluorophenyl)methyl)amino)-8-chloro-4-((3-hydroxycyclohexyl)amino) quinoline-3-carbonitrile] | – | 0.804 | 5.82 | –
15 | COc1ccccc1CNc1c(C#N)cnc2c(Cl)cc(N[C@@H](c3ccc(F)cc3)c3cn(C4CCN(C(C)(C)C)CC4)nn3)cc12 [Example 442, (S)-6-(((1-(1-(tert-butyl)piperidin-4-yl)-1H-1,2,3-triazol-4-yl)(4-fluorophenyl)methyl)amino)-8-chloro-4-((2-methoxybenzyl)amino) quinoline-3-carbonitrile] | 4.9 | 0.193 | – | –
16 | N#Cc1cnc2c(Cl)cc(N[C@@H](c3ccc(F)cc3)c3c[nH]nn3)cc2c1NCC(F)(F)F [Example 443, (S)-8-chloro-6-(((4-fluorophenyl)(1H-1,2,3-triazol-4-yl)methyl)amino)-4-((2,2,2-trifluoroethyl)amino) quinoline-3-carbonitrile] | > 10 | 2.7 | – | –

Stronger by IC50 [2], values ahead:

Row | EC50 [1, 3] [µM] | IC50 [2] [µM] | EC50 [1, 4] [µM] | SMILES | EC50 ([1]; Homo sapiens, Monocyte) [µM]
17 | 1.26 | 0.017 | – | N#Cc1ccc([C@H](Nc2cc(Cl)c3ncc(C#N)c(Nc4cnc(F)c(F)c4)c3c2)c2c[nH]nn2)cc1 [Example 423, (S)-8-chloro-6-(((4-cyanophenyl)(1H-1,2,3-triazol-4-yl)methyl)amino)-4-((5,6-difluoropyridin-3-yl)amino)quinoline-3-carbonitrile] | –
18 | 0.415 | 0.006 | – | N#Cc1cccc([C@H](Nc2cc(Cl)c3ncc(C#N)c(Nc4cnc(F)c(F)c4)c3c2)c2c[nH]nn2)c1 [Example 424, (S)-8-chloro-6-(((3-cyanophenyl)(1H-1,2,3-triazol-4-yl)methyl)amino)-4-((5,6-difluoropyridin-3-yl)amino)quinoline-3-carbonitrile] | –
19 | 0.438 | 0.01 | – | N#Cc1cnc2c(Cl)cc(N[C@@H](c3ccc(F)cc3)c3c[nH]nn3)cc2c1Nc1cnc(F)c(Cl)c1 [Example 425, (S)-8-chloro-4-((5-chloro-6-fluoropyridin-3-yl)amino)-6-(((4-fluorophenyl)(1H-1,2,3-triazol-4-yl)methyl)amino)quinoline-3-carbonitrile] | –
20 | 0.257 | 0.009 | – | CC[C@@H](Nc1c(C#N)cnc2c(Cl)cc(N[C@H](c3cn(C4CC4)nn3)c3ccccc3F)cc12)c1ccccc1 [Example 429, 8-chloro-6-(((S)-(1-cyclopropyl-1H-1,2,3-triazol-4-yl)(2-fluorophenyl)methyl)amino)-4-(((R)-1-phenylpropyl)amino)quinoline-3-carbonitrile] | –
21 | 0.679 | 0.007 | – | N#Cc1cnc2c(Cl)cc(N[C@H](c3cn(C4CC4)nn3)c3ccccc3F)cc2c1Nc1cnc(F)c(F)c1 [Example 430, (S)-8-chloro-6-(((1-cyclopropyl-1H-1,2,3-triazol-4-yl)(2-fluorophenyl)methyl)amino)-4-((5,6-difluoropyridin-3-yl)amino)quinoline-3-carbonitrile] | –
22 | 1.38 | 0.031 | – | N#Cc1cnc2c(Cl)cc(N[C@@H](c3ccc(F)cc3)c3c[nH]nn3)cc2c1N[C@H](CO)c1ccccc1 [Example 433, 8-chloro-6-(((S)-(4-fluorophenyl)(1H-1,2,3-triazol-4-yl)methyl)amino)-4-(((S)-2-hydroxy-1-phenylethyl)amino)quinoline-3-carbonitrile] | –
23 | – | 0.046 | 0.371 | CC(C)(C)N1CCC(n2cc([C@@H](Nc3cc(Cl)c4ncc(C#N)c(NC5CCCC(O)C5)c4c3)c3ccc(F)cc3)nn2)CC1 (stereo partly drawn) [Example 440, 6-(((S)-(1-(1-(tert-butyl)piperidin-4-yl)-1H-1,2,3-triazol-4-yl)(4-fluorophenyl)methyl)amino)-8-chloro-4-((3-hydroxycyclohexyl)amino) quinoline-3-carbonitrile] | –
24 | 0.855 | 0.028 | – | CC[C@@H](Nc1c(C#N)cnc2c(Cl)cc(N[C@H](c3c[nH]nn3)c3ccccc3F)cc12)c1ccccc1 [Example 444, 8-chloro-6-(((S)-(2-fluorophenyl)(1H-1,2,3-triazol-4-yl)methyl)amino)-4-(((R)-1 phenylpropyl)amino) quinoline-3-carbonitrile] | –
